The values below come from PubChem BioAssay (NCI).

Molecules are shown by their SMILES. Values joined by “and” are separate entries in the source; they are usually repeats but may differ in a detail not shown here. Equal values may be shown once.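 48-hour exposure; five concentrations; linearly interpolated endpoints. Abbreviation: GI50, concentration required for 50% inhibition of growth. TGI marks complete inhibition of growth.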 Where a SMILES comes first, the peptide text is derived from it. [ ]: non-standard residue; d: D form. The star is where a group is joined. Bn2Val = CC(C)[C@@H](C(=O)*)N(Cc1ccccc1)Cc1ccccc1; NMeV = CN[C@H](C(=O)O)C(C)C; X29 = COc1ccc(CN*)c(OC)c1; dNMeA = CN[C@H](C)C(=O)O

Common to all, as to assay: NCI tumour cell line growth inhibition, 48 h
Test [1] concerns 786-0 renal.
Test [2] has as its system CCRF-CEM leukemia.
Test [3] deals with DU-145 prostate.
The subject of test [4] is HL-60(TB) leukemia.
Test [5] concerns M14 melanoma.
Test [6] has as its system MALME-3M melanoma.
The test system of test [7] is NCI/ADR-RES ovarian.
Test [8] relates to SK-MEL-2 melanoma.
The test system of test [9] is SK-OV-3 ovarian.
In test [10] the test system is SW-620 colon.
The subject of test [11] is UACC-62 melanoma.

Take `O=C(Sc1c(-c2ccccc2)c(=O)n(-c2ccccc2)c(=S)n1-c1ccccc1)c1cccs1`: the TGI in test [1] was over 100 µM; in test [2], 97.8 µM; in [3] it was over 100 µM; in [4], over 100 µM; in test [5] it was over 100 µM; in test [6] it was over 100 µM. Moreover, the TGI in [7], in test [8], in [9] and in test [10] was over 100 µM throughout.

Turning to `COc1ccccc1N=Nc1c(O)c(S(=O)(=O)O)cc2cc(S(=O)(=O)O)ccc12`, the TGI in test [1], in test [2], in test [3], in test [5], in test [6] and in [7] was over 100 µM in each case. Besides, the TGI in [8], in test [9], in [10] and in [11] was over 100 µM throughout.

Turning to `COC(=O)[C@@](C)(COC(=O)C(C)(C)C)NC(=O)OC(C)(C)C`, the TGI in test [1], in test [2], in [3], in [5], in test [6] and in test [7] was over 100 µM in each case. In addition, the TGI in [8], in test [9], in test [10] and in test [11] was over 100 µM in each case.

With `CC(=O)OC1C2CCC3C(C)(O)C4CC(O)C(C)(C)C4(O)C(O)CC13CC2(C)O` (centres undefined), the TGI in test [1], in test [2], in [3], in [4], in test [5] and in test [7] was over 100 µM throughout. For the same compound, the TGI in test [8], in test [9] and in test [11] was over 100 µM throughout.

As for `CCOC(=O)c1c(C)nc2c(c1-c1cn(-c3ccccc3)nc1-c1ccccc1)C(=O)c1ccccc1-2`, the TGI in test [1], in test [2], in test [3], in [5], in test [6] and in test [7] was over 100 µM each time. The TGI in test [8], in [9], in [10] and in test [11] was over 100 µM in each case.

For `COC(=O)CCc1c(Cc2ccc[nH]2)[nH]c(C(=O)OCc2ccccc2)c1C`, the TGI in [1] is 31.4 µM; in test [2], over 100 µM; in [3], over 100 µM; in test [5], 30.4 µM; in test [6], 38.3 µM; in [7] it was 52.1 µM. The TGI in test [8] was 33.7 µM; in [9] it was over 100 µM; in test [10], 45.7 µM; in [11], 66.8 µM.

`O=[N+]([O-])c1ccc2oc(=Nc3ccccc3)c(Nc3ccccc3)nc2c1`: the TGI is 76.6 µM in test [1]; over 100 µM in test [2]; over 100 µM in [3]; over 100 µM in test [4]; over 100 µM in test [6]; over 100 µM in test [7]. The TGI in test [8], in test [9], in [10] and in [11] was over 100 µM in each case.

Take `CCOc1ccc(N=NC2C(=O)N(C(=O)CC(=O)Nc3ccccc3)N=C2C)cc1` (centres undefined): the TGI in test [1], in test [2], in test [3], in test [4], in test [5] and in test [6] was over 100 µM throughout. Besides, the TGI in [7], in test [8], in test [10] and in test [11] was over 100 µM throughout.

With `Cc1ccc(-c2nnc(CCCCCCCCc3nnc(-c4ccc(C)cc4O)n3N)n2N)c(O)c1`, the TGI in [1], in [3], in [5], in test [6], in test [7] and in [8] was over 100 µM each time. Besides, the TGI in test [9], in [10] and in [11] was over 100 µM in each case.

As for `CN(C)c1ccc(/C=C/C(=O)N[C@@H]2C(=O)N3[C@@H]2SC(C)(C)[C@@H]3C(=O)O)cc1`, the TGI in test [1], in test [2], in test [3], in test [4], in test [5] and in test [7] was over 100 µM in each case. Moreover, the TGI in test [8], in test [10] and in test [11] was over 100 µM in each case.

Regarding `CC12CCCCC1=[N+]([O-])C(C)(C)N2O` (centres undefined), the TGI in test [1], in test [2], in [3], in test [5], in [6] and in test [7] was over 100 µM throughout. In addition, the TGI in test [8], in test [9], in test [10] and in test [11] was over 100 µM each time.

`CC(=O)OC12c3ccccc3C(c3ccccc31)C1C(=O)N(c3ccccn3)C(=O)C12` (centres undefined): the TGI in test [1], in [2], in [3], in test [4], in test [5] and in test [6] was over 100 µM in each case. Also, the TGI in test [7], in [9], in test [10] and in [11] was over 100 µM throughout.

Consider `COC(=O)C(=O)C(C(=O)C(=O)Nc1cccc([N+](=O)[O-])c1)c1nc2ccc(Cl)cc2[nH]c1=O` (centres undefined), for which the TGI in test [1], in test [2], in test [3], in test [4], in [5] and in [7] was over 100 µM in each case. Further, the TGI in test [8], in [9], in test [10] and in [11] was over 100 µM each time.

For `N=C(N)SCCC(=O)CCSC(=N)N`, the TGI in [2], in [3], in [4], in test [5], in test [7] and in test [9] was over 100 µM each time. Besides, in test [10], the TGI is over 100 µM.

In the case of `O=C1C=C2CCC[C@H]3OC(=O)C[C@@]23CC1`, the TGI in test [1], in [3], in [4], in test [5], in test [6] and in test [7] was over 100 µM each time. Also, the TGI in [8], in [9], in test [10] and in test [11] was over 100 µM throughout.

Turning to `Cn1c([C@H](C#N)C(=O)c2cc(O)ccc2[N+](=O)[O-])nc2ccccc21`, the TGI in test [1], in test [2], in [3], in test [4], in test [5] and in test [6] was over 100 µM throughout. Moreover, the TGI in test [7], in test [8] and in [11] was over 100 µM in each case.

Consider `Nc1ccc(Nc2cc(=O)[nH]c(=O)[nH]2)cc1`, for which the TGI in [1], in test [2], in test [3], in test [4], in [6] and in test [7] was over 100 µM in each case. The TGI in [9], in test [10] and in test [11] was over 100 µM in each case.

With `Cc1c(OCc2ccccc2)c(=O)ccn1CCc1c[nH]c2ccccc12`, the TGI in [1] was 87 µM; in [2], over 100 µM; in test [3], over 100 µM; in [5], 86.2 µM; in [6] it was 88.3 µM; in [7], over 100 µM. Besides, the TGI was 48.2 µM in test [8], over 100 µM in test [9], over 100 µM in [10] and 87.3 µM in test [11].

As for `N#C/C(=C\c1ccc([N+](=O)[O-])s1)c1nc2cc(Cl)ccc2s1`, the GI50 was 0.469 µM in [2]; 2.75 µM in test [3]; 0.382 µM in test [5]; 0.202 µM in [6]; 1.06 µM in test [7]; 1.25 µM in [8]. Moreover, the GI50 in test [10] is 0.354 µM. The TGI in test [2] was over 100 µM; in test [3], over 100 µM; in test [5], 1.68 µM; in test [6], 0.541 µM; in test [7], 6.07 µM; in [8] it was 3.7 µM. This compound also came in with a TGI in test [10] of 2.09 µM.

For the compound `Nc1nccc(NCC2(CO)CCC2)n1`, the TGI in [1], in test [2], in test [3], in test [4], in [6] and in [7] was over 100 µM in each case. For the same compound, the TGI in test [8], in test [10] and in [11] was over 100 µM each time.

As for `COc1ccc(CNC(=O)[C@@H]2CCCN2C(=O)[C@@H](C)N(C)C(=O)[C@H](C(C)C)N(C)C(=O)[C@@H](NC(=O)[C@H](C(C)C)N(Cc2ccccc2)Cc2ccccc2)C(C)C)c(OC)c1` (Bn2Val-V[NMeV][dNMeA]P-X29), the TGI in [1] turned out to be 11.1 µM; in test [3], 20.7 µM; in test [4] it was 2.8 µM; in test [5], 10.5 µM; in [6], 36.7 µM; in test [7], 12.3 µM. The TGI in test [8] stood at 3.45 µM; in test [9], 63.2 µM; in test [10], 20.6 µM; in test [11], 15.4 µM.

Regarding `O=C1CC(C(OCc2ccccc2)C(OCc2ccccc2)C(COCc2ccccc2)OCc2ccccc2)CC(=O)N1` (centres undefined), the TGI in test [1] is over 100 µM; in [2], 80.4 µM and > 75 µM; in [3], over 100 µM; in test [4], over 100 µM; in [5], over 100 µM; in test [6], over 100 µM. The TGI in test [7] and in test [10] was over 100 µM in each case. The GI50 in [2] is 19.4 µM and 64.4 µM.

On to `Oc1ccccc1C1C=C(c2ccccc2)NC(N2CCCCC2)=C1c1nc2ccccc2[nH]1` (centres undefined), for which the TGI in test [1] turned out to be 25.7 µM; in test [2], 47.7 µM; in test [3], 66.6 µM; in test [4], 43 µM; in test [5], 25.9 µM; in [6], 29.6 µM. The TGI in test [7] is 34 µM; in test [9], 26.4 µM; in test [10] it was 30.5 µM; in test [11], 29.8 µM.

`[O-][n+]1c(CN2CCCCC2)nc2cccc3c2c1-c1ccccc1-3`: the TGI in test [1] was 51.5 µM; in test [3] it was 41.5 µM; in test [4], over 100 µM; in test [5], 31.3 µM; in [6], 29 µM; in [7], 84.6 µM. Besides, the TGI was 43.7 µM in [8], 92.5 µM in test [9], over 100 µM in [10] and 32.8 µM in [11].

Take `O=Nn1c2ccccc2c2cc([N+](=O)[O-])ccc21`: the TGI is 44.5 µM in [2]; 28.5 µM in test [3]; over 100 µM in [4]; 47.9 µM in [5]; 38.5 µM in test [6]; 74 µM in test [7]. Besides, the TGI in test [8] amounted to 96.8 µM; in [9], 30.1 µM; in test [10], 59.7 µM; in test [11], 32.9 µM.

For `Cc1ccc(S(=O)(=O)[C@@H](Cl)[C@H]2N=C(Cl)NN=C2c2ccccc2)cc1`, the TGI in test [1] worked out at 85 µM; in [2], 75 µM; in test [3] it was 70.9 µM; in [5] it was 42.6 µM; in [6] it was 41.7 µM; in test [7], 50.8 µM. The TGI in test [8] is 34.8 µM; in test [9] it was over 100 µM; in [10] it was 40.8 µM; in [11] it was 44 µM.
